Article PMC9656735, “Eight Indole Alkaloids from the Roots of Maerua siamensis and Their Nitric Oxide Inhibitory Effects” (Molecules, 2022)
Read-outs that look alike come from different tables or passages of the source.

Key:
NO = tested on: NO; design: method as in PMID 32163787; conditions: read-out: NO inhibitory activity IC50; cited from earlier work
RAW 264.7 cells = assay: Cytotoxicity / cell viability by MTT assay in LPS-induced RAW 264.7 cells; assay type: cell-based; conditions: for Cytotoxicity: MTT, concentration at which cell viability was lower than 80%, maximum concentration 200 μM
Description: (§1) The compounds were dissolved in DMSO to prepare their stock solutions at a concentration of 50 mM. Then, they were pipetted to mix in the culture medium to make the maximum tested concentration of 200 µM containing 0.4% DMSO. Then, the 200 µM tested solution was further diluted with a culture medium, giving the concentration series of 200, 100, 50, and 25 μM (2-fold dilution). The working concentrations of the test compounds [25, 50, 100, and 200 μM] were used to treat cells.
(§2) Raw264.7 cells were seeded at a density of 5 × 10^4 cells/well in a 96-well plate. The cells were pre-treated with various concentrations of samples for 24 h. Cells were induced with 100 ng/mL LPS for 24 h. The culture supernatant was collected for NO production analysis, and cells were further examined for their viability.
The cell viability was measured by the MTT assay. An MTT solution (1 mg/mL) was added to each well and incubated for 4 h at 37 °C. Then, the MTT solution was removed, and the formazan production was dissolved with DMSO. The absorbance was measured at 570 nm using a microplate reader (BioTeK, Santa Clara, CA, USA).

[1] = tested on: nitric oxide (NO) production in LPS-induced RAW 264.7 cells; assay: Inhibition of nitric oxide production in LPS-induced RAW 264.7 cells (Griess reagent); assay type: cell-based; conditions: for IC50: Mus musculus; for nitric oxide inhibition activity compared with indomethacin: in words
Description: as §1, §2
The NO production was measured using a Griess reagent kit (Invitrogen, Thermo Fisher Scientific, Waltham, MA, USA). Ninety µL of culture media were mixed with 10 µL of Griess reagent and incubated at room temperature for 30 min, and then the NO concentration was measured at 540 nm using the microplate reader. The percentage of NO production was calculated as Equation (1). (1) %NO production = A/B × 100
A: The concentration of the nitric oxide in the cells induced by LPS and with sample pre-treatment [LPS (+), sample (+)].
B: The concentration of nitric oxide in the cells induced by LPS without sample pre-treatment [LPS (+), sample (−)].
The NO inhibitory activity was expressed as half the maximum (IC50) of the inhibitory concentration calculated using GraphPad Prism 9.

[2] = RAW264.7, pre-treated 24 h, then 100 ng/mL LPS 24 h, Mean ± SD from three independent experiments, tested 25-200 μM, read-out: IC50 of NO Inhibition

| Molecule | IC50 (NO) [µM] | cytotoxicity (in words) (RAW 264.7 cells; IC50 of NO inhibition could not be determined) | Cytotoxicity (RAW 264.7 cells) | IC50 [1, 2] [µM] | inhibition of nitric oxide production (in words) [1] | nitric oxide inhibition activity compared with indomethacin [1] | IC50 ([1]; RAW264.7, above the 200 μM maximum tested concentration, Mean ± SD, read-out: IC50 of NO Inhibition (value in parentheses, above the maximum tested concentration)) [µM] |
| --- | --- | --- | --- | --- | --- | --- | --- |
| isatindigoside G | 67.3 ± 5.5 | – | – | – | – | – | – |
| COc1ccc2cc(C3=C(c4c[nH]c5cccc(OC)c45)N=C3SC)[nH]c2c1 [Compound 6, 4-methoxy-3-[3-(6-methoxy-1H-indol-2-yl)-2-(methylthio)azet-4-yl]-1H-indole] | – | too cytotoxic | toxicity at 100 μM | – | – | – | – |
| COc1ccc2c(c1)c(CC(=O)O)c(C)n2C(=O)c1ccc(Cl)cc1 [indomethacin, reference compound] | – | – | >200 µM | 150 ± 16 | – | – | – |
| COc1ccc2cc(C3=C(c4c[nH]c5cccc(OC)c45)N=C3[S+](C)[O-])[nH]c2c1 (stereo not drawn) [Compound 7, 4-methoxy-3-[3-(6-methoxy-1H-indol-2-yl)-2-(methylsulfinyl)azet-4-yl]-1H-indole] | – | – | toxicity at 100 μM | 31.1 ± 1.8 | inhibited nitric oxide production | stronger than indomethacin | – |
| CO/N=C(\C=C1\C(=O)Nc2cc(OC)ccc21)SC [Compound 5, methyl (E)-N-methoxy-2-[(E)-6-methoxy-2-oxindolin-3-ylidene]ethanimidothiolate] | – | – | >200 µM | 92.2 ± 8.9 | inhibited nitric oxide production | stronger than indomethacin | – |
| isatindigoside F | 70.3 ± 6.9 | – | – | – | – | – | – |
| CO/N=C(\SC)C(=O)c1c[nH]c2cc(OC)ccc12 [Compound 4, methyl (Z)-N-methoxy-2-(6-methoxy-1H-indol-3-yl)-2-oxoethanimidothioate] | – | – | >200 µM | > 200 | – | – | > 200 |
| COc1ccc2c(CC#N)c([S+](C)[O-])[nH]c2c1 (stereo not drawn) [Compound 2, 2-(6-methoxy-2-(methylsulfinyl)-1H-indol-3-yl)acetonitrile] | – | – | >200 µM | 187 ± 23.1 | inhibited nitric oxide production | as strong as indomethacin | – |
| CO/N=C(/Cc1c[nH]c2cc(OC)ccc12)SC [Compound 3, methyl (Z)-N-methoxy-2-(6-methoxy-1H-indol-3-yl)ethanimidothioate] | – | – | toxicity at 100 μM | – | – | – | – |
| COc1cccc2[nH]c3c(C#N)c4c(cc3c12)[nH]c1cc(O)ccc14 [Compound 8, 9-hydroxy-1-methoxy-5,11-dihydroindolo[3,2-b]carbazole-6-carbonitrile] | – | – | >200 µM | 56.7 ± 3.8 | inhibited nitric oxide production | stronger than indomethacin | – |
| COc1ccc2c(c1)NC(=O)[C@]2(O)CC#N [Compound 1, (+)-(S)-2-(3-hydroxy-6-methoxy-2-oxoindolin-3-yl)acetonitrile] | – | – | >200 µM | 186 ± 22.5 | inhibited nitric oxide production | as strong as indomethacin | – |
